Laboratory results reported in ChEMBL document CHEMBL4270599, “Synthesis of a 3'-C-ethynyl-β-d-ribofuranose purine nucleoside library: Discovery of C7-deazapurine analogs as potent antiproliferative nucleosides” (Eur J Med Chem, 2018).

Assays:
HOP-92 [1] = assay: Cytotoxicity against human HOP92 cells after 48 hrs by SRB assay; type: functional; settings: HOP-92, 48 h
RXF 393 [2] = assay: Cytotoxicity against human RXF393 cells after 48 hrs by SRB assay; type: functional; settings: RXF 393, 48 h
DU-145 = assay: Cytotoxicity against human DU145 cells after 48 hrs by SRB assay; type: functional; settings: DU-145, 48 h
MDA-MB-231 = assay: Cytotoxicity against human MDA-MB-231 cells after 48 hrs by SRB assay; type: functional; settings: MDA-MB-231, 48 h
HOP-92 [3] = assay: Growth inhibition of human HOP92 cells assessed as cell growth at 10^-8 M incubated for 48 hrs by sulforhodamine B assay relative to control; type: functional; settings: HOP-92, 48 h, read-out: Activity
NCI-H460 = assay: Growth inhibition of human NCI-H460 cells assessed as cell growth at 10^-8 M incubated for 48 hrs by sulforhodamine B assay relative to control; type: functional; settings: NCI-H460, 48 h, read-out: Activity
KM12 = assay: Growth inhibition of human KM12 cells assessed as cell growth at 10^-8 M incubated for 48 hrs by sulforhodamine B assay relative to control; type: functional; settings: KM12, 48 h, read-out: Activity
SF-295 = assay: Growth inhibition of human SF295 cells assessed as cell growth at 10^-8 M incubated for 48 hrs by sulforhodamine B assay relative to control; type: functional; settings: SF-295, 48 h, read-out: Activity
SNB-19 = assay: Growth inhibition of human SNB19 cells assessed as cell growth at 10^-8 M incubated for 48 hrs by sulforhodamine B assay relative to control; type: functional; settings: SNB-19, 48 h, read-out: Activity
LOX IMVI = assay: Growth inhibition of human LOXIMVI cells assessed as cell growth at 10^-8 M incubated for 48 hrs by sulforhodamine B assay relative to control; type: functional; settings: read-out: Activity
SK-MEL-2 = assay: Growth inhibition of human SK-MEL-2 cells assessed as cell growth at 10^-8 M incubated for 48 hrs by sulforhodamine B assay relative to control; type: functional; settings: SK-MEL-2, 48 h, read-out: Activity
SK-MEL-5 [4] = assay: Growth inhibition of human SK-MEL-5 cells assessed as cell growth at 10^-8 M incubated for 48 hrs by sulforhodamine B assay relative to control; type: functional; settings: SK-MEL-5, 48 h, read-out: Activity
OVCAR-3 = assay: Growth inhibition of human OVCAR3 cells assessed as cell growth at 10^-8 M incubated for 48 hrs by sulforhodamine B assay relative to control; type: functional; settings: OVCAR-3, 48 h, read-out: Activity
RXF 393 [5] = assay: Growth inhibition of human RXF393 cells assessed as cell growth at 10^-8 M incubated for 48 hrs by sulforhodamine B assay relative to control; type: functional; settings: RXF 393, 48 h, read-out: Activity
UO-31 = assay: Growth inhibition of human UO31 cells assessed as cell growth at 10^-8 M incubated for 48 hrs by sulforhodamine B assay relative to control; type: functional; settings: UO-31, 48 h, read-out: Activity
T47D = assay: Growth inhibition of human T47D cells assessed as cell growth at 10^-8 M incubated for 48 hrs by sulforhodamine B assay relative to control; type: functional; settings: read-out: Activity
MOLT-4 = assay: Growth inhibition of human MOLT4 cells assessed as cell growth at 10^-7 M incubated for 48 hrs by sulforhodamine B assay relative to control; type: functional; settings: MOLT-4, 48 h, read-out: Activity
HCT-116 [6] = assay: Growth inhibition of human HCT116 cells assessed as cell growth at 10^-7 M incubated for 48 hrs by sulforhodamine B assay relative to control; type: functional; settings: HCT-116, 48 h, read-out: Activity
HT-29 = assay: Growth inhibition of human HT-29 cells assessed as cell growth at 10^-7 M incubated for 48 hrs by sulforhodamine B assay relative to control; type: functional; settings: HT-29, 48 h, read-out: Activity
SF-539 = assay: Growth inhibition of human SF539 cells assessed as cell growth at 10^-7 M incubated for 48 hrs by sulforhodamine B assay relative to control; type: functional; settings: SF-539, 48 h, read-out: Activity
SK-MEL-5 [7] = assay: Growth inhibition of human SK-MEL-5 cells assessed as cell growth at 10^-7 M incubated for 48 hrs by sulforhodamine B assay relative to control; type: functional; settings: SK-MEL-5, 48 h, read-out: Activity
NCI-H23 = assay: Growth inhibition of human NCI-H23 cells assessed as cell growth at 10^-6 M incubated for 48 hrs by sulforhodamine B assay relative to control; type: functional; settings: NCI-H23, 48 h, read-out: Activity
HCT-116 [8] = assay: Growth inhibition of human HCT116 cells assessed as cell growth at 10^-6 M incubated for 48 hrs by sulforhodamine B assay relative to control; type: functional; settings: HCT-116, 48 h, read-out: Activity
MDA-MB-435 = assay: Growth inhibition of human MDA-MB-435 cells assessed as cell growth at 10^-6 M incubated for 48 hrs by sulforhodamine B assay relative to control; type: functional; settings: MDA-MB-435, 48 h, read-out: Activity
OVCAR-5 = assay: Growth inhibition of human OVCAR5 cells assessed as cell growth at 10^-6 M incubated for 48 hrs by sulforhodamine B assay relative to control; type: functional; settings: OVCAR-5, 48 h, read-out: Activity
NCI/ADR-RES [9] = assay: Growth inhibition of human NCI/ADR-RES cells assessed as cell growth at 10^-6 M incubated for 48 hrs by sulforhodamine B assay relative to control; type: functional; settings: read-out: Activity
SN12C [10] = assay: Growth inhibition of human SN12C cells assessed as cell growth at 10^-6 M incubated for 48 hrs by sulforhodamine B assay relative to control; type: functional; settings: read-out: Activity
U-251 = assay: Growth inhibition of human U251 cells assessed as cell growth at 10^-5 M incubated for 48 hrs by sulforhodamine B assay relative to control; type: functional; settings: U-251, 48 h, read-out: Activity
NCI/ADR-RES [11] = assay: Growth inhibition of human NCI/ADR-RES cells assessed as cell growth at 10^-4 M incubated for 48 hrs by sulforhodamine B assay relative to control; type: functional; settings: read-out: Activity
SN12C [12] = assay: Growth inhibition of human SN12C cells assessed as cell growth at 10^-4 M incubated for 48 hrs by sulforhodamine B assay relative to control; type: functional; settings: read-out: Activity
TK-10 = assay: Growth inhibition of human TK10 cells assessed as cell growth at 10^-4 M incubated for 48 hrs by sulforhodamine B assay relative to control; type: functional; settings: TK-10, 48 h, read-out: Activity
MCF7 = assay: Growth inhibition of human MCF7 cells assessed as cell growth at 10^-4 M incubated for 48 hrs by sulforhodamine B assay relative to control; type: functional; settings: MCF7, 48 h, read-out: Activity
[13] = Antiproliferative activity against HELF cells after 4 days by Coulter counter method; type: cell-based; settings: Homo sapiens, 96 h
[14] = read-out: LC50 (the source's name)

Structure (SMILES): C#C[C@@]1(O)[C@@H](CO)O[C@@H](n2cc(F)c3c(N)ncnc32)[C@@H]1O
- CC50 (HOP-92 [1]; [14]): > 100 µM
- GI50 (HOP-92 [1]; read-out: pGI50 (converted)): 0.038 µM
- CC50 (RXF 393 [2]; [14]): > 100 µM
- TGI (RXF 393 [2]; read-out: TGI): 2.99 µM
- GI50 (RXF 393 [2]; read-out: pGI50 (converted)): 0.724 µM
- TGI (RXF 393 [2]; read-out: pTGI (converted)): 3.02 µM
- CC50 (DU-145; [14]): > 100 µM
- TGI (DU-145; read-out: TGI): 13.4 µM
- GI50 (DU-145; read-out: pGI50 (converted)): 0.355 µM
- TGI (DU-145; read-out: pTGI (converted)): 13.5 µM
- CC50 (MDA-MB-231; [14]): > 100 µM
- TGI (MDA-MB-231; read-out: TGI): 2.98 µM
- GI50 (MDA-MB-231; read-out: pGI50 (converted)): 0.38 µM
- TGI (MDA-MB-231; read-out: pTGI (converted)): 2.95 µM
- growth at 0.01 µM (HOP-92 [3]): 121%
- growth at 0.01 µM (NCI-H460): 100%
- growth at 0.01 µM (KM12): 104%
- growth at 0.01 µM (SF-295): 98%
- growth at 0.01 µM (SNB-19): 93%
- growth at 0.01 µM (LOX IMVI): 96%
- growth at 0.01 µM (SK-MEL-2): 103%
- growth at 0.01 µM (SK-MEL-5 [4]): 92%
- growth at 0.01 µM (OVCAR-3): 106%
- growth at 0.01 µM (RXF 393 [5]): 94%
- growth at 0.01 µM (UO-31): 94%
- growth at 0.01 µM (T47D): 101%
- growth at 0.1 µM (MOLT-4): 86%
- growth at 0.1 µM (HCT-116 [6]): 60%
- growth at 0.1 µM (HT-29): 68%
- growth at 0.1 µM (SF-539): 107%
- growth at 0.1 µM (SK-MEL-5 [7]): 78%
- growth at 1 µM (NCI-H23): 22%
- growth at 1 µM (HCT-116 [8]): 4%
- growth at 1 µM (MDA-MB-435): 28%
- growth at 1 µM (OVCAR-5): 65%
- growth at 1 µM (NCI/ADR-RES [9]): 22%
- growth at 1 µM (SN12C [10]): 17%
- growth at 10 µM (U-251): 1%
- growth at 100 µM (NCI/ADR-RES [11]): -6%
- growth at 100 µM (SN12C [12]): -24%
- growth at 100 µM (TK-10): -24%
- growth at 100 µM (MCF7): -21%
- IC50 [13]: 0.076 µM
